Data taken from the supplement of paper PMC10307832.

Experiments:
Test in all cases: relative viability (nuclei count vs DMSO), 5 days (fraction); higher = more cells survive
[1] = compound: CCCS(=O)(=O)Nc1ccc(F)c(C(=O)c2c[nH]c3ncc(-c4ccc(Cl)cc4)cc23)c1F [Vemurafenib] + CC(=O)c1c(C)c2cnc(Nc3ccc(N4CCNCC4)cn3)nc2n(C2CCCC2)c1=O [Palbociclib] (partner 0.5 µM)
Method in brief: (§1)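 Relative viability was taken as the ratio of nuclei in treated wells to nuclei in vehicle wells. Lung cancer cell lines in 1536-well plates received compounds by pin tool one day after seeding, either one drug alone or a fixed anchor-drug dose plus five library-drug doses (not always all listed) in √10 steps. Nuclei were counted on 4× images after 5 days of treatment, and values are medians of duplicate plates.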

Alpelisib + Pictilisib = compound: Cc1nc(NC(=O)N2CCC[C@H]2C(N)=O)sc1-c1ccnc(C(C)(C)C(F)(F)F)c1 [Alpelisib] + CS(=O)(=O)N1CCN(Cc2cc3nc(-c4cccc5[nH]ncc45)nc(N4CCOCC4)c3s2)CC1 [Pictilisib] (partner 1 µM)
Method in brief: as §1

Vemurafenib + Dasatinib = compound: CCCS(=O)(=O)Nc1ccc(F)c(C(=O)c2c[nH]c3ncc(-c4ccc(Cl)cc4)cc23)c1F [Vemurafenib] + Cc1nc(Nc2ncc(C(=O)Nc3c(C)cccc3Cl)s2)cc(N2CCN(CCO)CC2)n1 [Dasatinib] (partner 0.075 µM)
Method in brief: as §1

Vemurafenib + Lapatinib = compound: CCCS(=O)(=O)Nc1ccc(F)c(C(=O)c2c[nH]c3ncc(-c4ccc(Cl)cc4)cc23)c1F [Vemurafenib] + CS(=O)(=O)CCNCc1ccc(-c2ccc3ncnc(Nc4ccc(OCc5cccc(F)c5)c(Cl)c4)c3c2)o1 [Lapatinib] (partner 2 µM)
Method in brief: as §1

Cell Line | relative viability ([1]; first compound 0.03162 µM) | relative viability ([1]; first compound 0.1 µM) | relative viability ([1]; first compound 0.3162 µM) | relative viability ([1]; first compound 1 µM) | relative viability (Alpelisib + Pictilisib; first compound 0.04 µM) | relative viability (Alpelisib + Pictilisib; first compound 0.1265 µM) | relative viability (Alpelisib + Pictilisib; first compound 0.4 µM) | relative viability (Alpelisib + Pictilisib; first compound 1.265 µM) | relative viability (Alpelisib + Pictilisib; first compound 4 µM) | relative viability (Vemurafenib + Dasatinib; first compound 0.03162 µM) | relative viability (Vemurafenib + Dasatinib; first compound 0.1 µM) | relative viability (Vemurafenib + Dasatinib; first compound 1 µM) | relative viability (Vemurafenib + Lapatinib; first compound 0.03162 µM) | relative viability (Vemurafenib + Lapatinib; first compound 0.1 µM) | relative viability (Vemurafenib + Lapatinib; first compound 0.3162 µM) | relative viability (Vemurafenib + Lapatinib; first compound 1 µM) | relative viability (Vemurafenib + Dasatinib; first compound 0.3162 µM)
NCI-H650 | 0.359 | 0.288 | 0.241 | 0.287 | 0.756 | 0.804 | 1.09 | 0.746 | 0.808 | 0.392 | 0.52 | 0.395 | 0.838 | 1.15 | 0.313 | 0.681 | –
NCI-H661 | 0.406 | 0.357 | 0.454 | 0.403 | 0.374 | 0.367 | 0.475 | 0.506 | 0.346 | 0.829 | 0.59 | 0.938 | 0.488 | 0.534 | 0.507 | 0.424 | 0.54
NCI-H727 | 0.699 | 0.631 | 0.811 | 0.661 | 0.302 | 0.462 | 0.404 | 0.325 | 0.373 | 0.323 | – | 0.421 | 0.653 | 0.772 | 1.16 | 0.886 | 0.724
NCI-H838 | 0.213 | 0.236 | 0.177 | 0.343 | 0.439 | 0.471 | 0.427 | 0.47 | 0.434 | 0.256 | 0.22 | 0.325 | 0.877 | 1.05 | – | 1.12 | –
NCI-H1355 | 0.384 | 0.325 | 0.436 | 0.45 | 0.444 | 0.568 | 0.436 | 0.521 | 0.425 | 0.671 | 0.703 | 0.745 | 0.962 | 0.956 | 0.837 | 1.08 | 0.466
NCI-H1395 | 0.553 | 0.613 | 0.523 | 0.611 | 0.493 | 0.673 | 0.663 | 0.615 | 0.492 | 0.415 | 0.411 | 0.403 | 0.891 | 0.95 | – | 1.19 | –
NCI-H1437 | 0.311 | 0.307 | 0.311 | 0.346 | 0.416 | 0.482 | 0.441 | 0.37 | 0.335 | 0.338 | 0.336 | 0.325 | 0.748 | 0.793 | 0.698 | 0.876 | 0.296
NCI-H1650 | 0.314 | 0.255 | 0.356 | 0.351 | 0.625 | 0.488 | 0.631 | 0.595 | 0.494 | – | 0.301 | 0.305 | 0.7 | – | 0.699 | 0.738 | –
NCI-H1651 | 0.511 | 0.463 | 0.488 | 0.53 | 0.606 | 0.596 | 0.638 | 0.547 | 0.644 | 0.417 | 0.462 | 0.452 | 0.853 | 0.772 | 0.756 | 0.824 | 0.277
